Like-named read-outs stand apart in the source and are kept apart here.
Test system: pyroglutamylated CD47 (pE-CD47) in KBM7 cells
Experiment: Assay 6 - cell-based potency assay (pE-CD47 CC2C6 staining vs total CD47)
Parameters: species or system human
Settings: CC2C6 signal
Description: Cells were spun for 4 minutes at 1500 rpm and washed once with PBS/0.5% BSA. Cells were spun down again and the supernatant was removed and incubated in 100 uL antibody staining solution (PBS/0.5% BSA/0.1 μg/mL DAPI (4′,6-diamidino-2-phenylindole, ThermoFisher Scientific) and a mixture of 1:500 FITC-conjugated anti-human CD47 clone 2D3, which recognizes total CD47 irrespective of its pyroglutamylation state, and 1:500 Alexa647-conjugated anti-human CD47 clone CC2C6, which specifically detects pyroglutamylated CD47) for 2 hours at 4° C. Next, the cells were spun down and washed twice with 2×150 μL PBS/0.5% BSA to remove unbound antibody. Cells were again spun down and taken up in 300 μL FACS buffer before analysis on a Celesta FACS machine (BD Biosciences).
KBM7 cells (Kotecki et al., 1999) were infected with lentivirus produced by transfecting pSCNC-LentiCRISPR-QPCTL or pSCNC-LentiCRISPR-CD47 into HEK-293T cells according to standard protocols. After 24 hours incubation, cells were selected with puromycin (Invivogen, 1 μg/mL) for 48 hours. Cells were stained for total CD47 and pE-CD47 and QPCTL k.o. cells were sorted out as negative for pE-CD47, and CD47 k.o. cells as negative for total CD47, using a FACSAria III and FACS Diva software (BD Biosciences).
In order to test compounds for their effect on pyroglutamylation in live cells, 25000 KBM7 cells per well were seeded in a 96-well U-bottom plate in 150 μl IMDM/10% FCS/1% Pen/Strep medium and a 10-point 2-fold dilution range of test compounds. After 72 hours incubation at 37° C., 5% CO2, cells were stained for total CD47 and pE-CD47 and analyzed on a BD Celesta using FACS Diva software (BD Biosciences). Cells gated for DAPI negativity were recorded and the median fluorescence intensity (MFI) of each sample was transformed to linearly scale between the MFI's of wildtype and CD47 knockout cells (in case of the 2D3 antibody) and the wildtype and QPCTL knockout cells (in case of the CC2C6 antibody). IC50's were calculated by 3 parameter logistic regression of the CC2C6 signal vs. compound concentration, where the top of the sigmoidal curve was fixed at 1, using R and the drc package (http://www.r-project.org, https://cran.r-project.org/web/packages/drc/index.html).

[1] = Homo sapiens, KBM-7, 72 h, read-out: Cell Pot. Assay No. 6
[2] = Homo sapiens, KBM-7, 72 h, Table 2, read-out: Cell Potency Assay 6 (Comparison Data)

Row | SMILES | IC50 [1] [µM] | other results
1 | Cc1nn(C)c2c1C(c1ccc(N3CCC(F)(F)C3)cc1F)N(c1ccc3[nH]cnc3c1)C2=O (stereo not drawn) [FRPPO-170] | 1 to 5 | –
2 | Cc1c2c(nn1C)C(=O)N(c1ccc3[nH]cnc3c1)C2c1ccc(N2CC(O)C(F)C2)cc1F (stereo not drawn) [FRPPO-089] | 1 to 5 | –
3 | Cc1nc2c(s1)C(=O)N(c1ccc3[nH]cnc3c1)C2c1ccc(Cl)cc1F (stereo not drawn) [FRPPO-058] | 5 to 50 | –
4 | O=C1c2scnc2C(c2ccc(N3CCC(F)(F)C3)cc2F)N1c1ccc2[nH]cnc2c1 (stereo not drawn) [FRPPO-054] | 1 to 5 | –
5 | Cc1c2c(nn1C)C(=O)N(c1ccc3[nH]cnc3c1)C2c1ccc(N2CCC(F)C2)cc1F (stereo not drawn) [FRPPO-073] | 1 to 5 | –
6 | Cc1c2c(nn1C1CC1)C(=O)N(c1ccc3[nH]cnc3c1)C2c1ccc(N2CCC(F)(F)C2)cc1F (stereo not drawn) [FRPPO-127B] | < 1 | –
7 | CCCOc1ccc(C2c3c(nn(C)c3C)C(=O)N2c2cc(C)c3nnc(C)n3n2)cc1 (racemic) [REF-006, reference compound] | – | IC50 [2]: > 6.25 µM
8 | Cc1c2c(nn1C)C(=O)N(c1ccc3[nH]cnc3c1)C2c1ccc(N2CCS(=O)(=O)CC2)cc1F (stereo not drawn) [FRPPO-105] | 5 to 50 | –
9 | Cc1nn(C)c2c1C(c1ccc(-c3cnn(C(F)(F)F)c3)cc1)N(c1ccc3[nH]cnc3c1)C2=O (stereo not drawn) [FRPPO-175] | < 1 | –
10 | Cc1nn(C)c2c1C(=O)N(c1ccc3[nH]cnc3c1)C2c1ccc(Cl)cc1F (stereo not drawn) [FRPPO-052] | 5 to 50 | –
11 | Cc1c2c(nn1C)C(=O)N(c1ccc3[nH]cnc3c1)C2c1ccc(N2CCC23COC3)cc1F (stereo not drawn) [FRPPO-079] | 1 to 5 | –
12 | COC(=O)N1CCN(c2ccc(C3c4c(nn(C)c4C)C(=O)N3c3ccc4[nH]cnc4c3)c(F)c2)CC1 (stereo not drawn) [FRPPO-107] | 1 to 5 | –
13 | Cc1c2c(nn1C)C(=O)N(c1ccc3[nH]cnc3c1)C2c1ccc(N2CC3CC(C2)O3)cc1F (stereo not drawn) [FRPPO-077] | 1 to 5 | –
14 | Cc1c2c(nn1C1CC1)C(=O)N(c1ccc3[nH]cnc3c1)C2c1ccc(N2CCC(C(F)(F)F)CC2)cc1F (stereo not drawn) [FRPPO-136] | < 1 | –
15 | Cc1c2c(nn1C)C(c1ccc(Br)cc1F)N(c1ccc3[nH]cnc3c1)C2=O (stereo not drawn) [FRPPO-047] | 5 to 50 | –
16 | Cc1c2c(nn1C)C(=O)N(c1ccc3[nH]cnc3c1)C2c1ccc(C#N)cc1F (stereo not drawn) [FRPPO-069] | 1 to 5 | –
17 | Cc1c2c(nn1C)C(=O)N(c1ccc3[nH]cnc3c1)C2c1ccc(N2CCN(S(C)(=O)=O)CC2)cc1F (stereo not drawn) [FRPPO-111] | 1 to 5 | –
18 | Cc1nn(C)c2c1C(c1ccc(N3CCC(F)(F)C3)c(F)c1F)N(c1ccc3[nH]cnc3c1)C2=O (stereo not drawn) [FRPPO-169] | 1 to 5 | –
19 | Cc1c2c(nn1C)C(=O)N(c1ccc3[nH]cnc3c1)C2c1ccc(-c2cnc(C(F)(F)F)s2)cc1F (stereo not drawn) [FRPPO-144] | < 1 | –
20 | Cc1c2c(nn1C)C(=O)N(c1ccc3[nH]cnc3c1)C2c1ccc(N2CCN(C)CC2)cc1F (stereo not drawn) [FRPPO-083] | 1 to 5 | –
21 | Cc1[nH]nc2c1C(c1ccc(-c3cnc(C(F)(F)F)s3)cc1F)N(c1ccc3[nH]cnc3c1)C2=O (stereo not drawn) [FRPPO-145] | < 1 | –
22 | Cc1c2c(nn1C)C(=O)N(c1ccc3[nH]cnc3c1)C2c1ccc(N2CCO[C@@H](C)C2)cc1F (stereo partly drawn) [FRPPO-114A] | < 1 | –
23 | Cc1[nH]nc2c1C(c1ccc(-n3cc(C(F)(F)F)cn3)cc1F)N(c1ccn3ccnc3c1)C2=O (stereo not drawn) [FRPPO-198] | < 1 | –
24 | Cn1nc(C(F)(F)F)c2c1C(c1ccc(N3CCC(F)(F)C3)cc1F)N(c1ccc3[nH]cnc3c1)C2=O (stereo not drawn) [FRPPO-050] | 1 to 5 | –
25 | O=C1c2ncsc2C(c2ccc(Cl)cc2F)N1c1ccc2[nH]cnc2c1 (stereo not drawn) [FRPPO-063] | 1 to 5 | –
26 | Cc1nn(C)c2c1C(c1ccc(OCCC(F)F)c(F)c1F)N(c1ccc3[nH]cnc3c1)C2=O (stereo not drawn) [FRPPO-167] | 1 to 5 | –
27 | Cc1c2c(nn1C1CC1)C(=O)N(c1ccc3[nH]cnc3c1)C2c1ccc(N2CCC(F)(F)CC2)cc1F (stereo not drawn) [FRPPO-137] | < 1 | –

Row | SMILES | IC50 [1] [µM] | other results
28 | CCCOc1ccc(C2c3c(nn(C)c3C)C(=O)N2c2ccc3nnc(C)n3c2)cc1 (racemic) [REF-003, reference compound] | – | IC50 [2]: ≥ 50 µM
29 | Cc1c2c(nn1C)C(=O)N(c1ccc3[nH]cnc3c1)C2c1ccc(N2C3CCC2COC3)cc1F (stereo not drawn) [FRPPO-093] | 1 to 5 | –
30 | Cc1c2c(nn1C)C(=O)N(c1ccc3[nH]cnc3c1)C2c1ccc(-c2ccc(OC(F)(F)F)nc2)cc1F (stereo not drawn) [FRPPO-142A] | < 1 | –
31 | Cc1[nH]nc2c1C(c1ccc(N3CCC(F)(F)C3)cc1F)N(c1ccc3[nH]cnc3c1)C2=O (stereo not drawn) [FRPPO-126C] | – | IC50 (72 hours, read-out: Cell Pot. Assay No. 6): < 1 µM
32 | Cc1c2c(nn1C)C(=O)N(c1ccc3[nH]cnc3c1)C2c1ccc(N2CCOC[C@H]2C)cc1F (stereo partly drawn) [FRPPO-113B] | < 1 | –
33 | Cn1nc2c(c1CO)C(c1ccc(N3CCC(F)(F)C3)cc1F)N(c1ccc3[nH]cnc3c1)C2=O (stereo not drawn) [FRPPO-157] | < 1 | –
34 | CCCOc1ccc(C2c3c(nn(C)c3C)C(=O)N2c2ccc3nncn3n2)cc1 (racemic) [REF-005, reference compound] | – | IC50 [2]: ≥ 50 µM
35 | Cc1c2c(nn1C)C(=O)N(c1ccc3[nH]cnc3c1)C2c1cccc(C2CCN(C)CC2)c1F (stereo not drawn) [FRPPO-155] | 5 to 50 | –
36 | Cc1[nH]nc2c1C(c1ccc(N3CCC(F)(F)C3)cc1F)N(c1ccc3[nH]cnc3c1)C2=O (stereo not drawn) [FRPPO-126B] | 1 to 5 | –
37 | Cn1ncc2c1C(c1ccc(Cl)cc1F)N(c1ccc3[nH]cnc3c1)C2=O (stereo not drawn) [FRPPO-051] | 1 to 5 | –
38 | CCCOc1ccc(C2c3c(nn(C)c3C)C(=O)N2c2cc(C)c3nnn(C)c3c2)cc1 (racemic) [REF-002, reference compound] | – | IC50 [2]: > 6.25 µM
39 | Cc1c2c(nn1C)C(=O)N(c1ccc3[nH]cnc3c1)C2c1ccc(N2CCCC(O)C2)cc1F (stereo not drawn) [FRPPO-086] | 1 to 5 | –
40 | Cc1nc2c(s1)C(c1ccc(N3CCC(F)(F)C3)cc1F)N(c1ccc3[nH]cnc3c1)C2=O (stereo not drawn) [FRPPO-061] | 1 to 5 | –
41 | CCCOc1ccc(C2c3c(nn(C)c3C)C(=O)N2c2cc(C)c3nnc(C)n3c2)cc1 (racemic) [REF-004, reference compound] | – | IC50 [2]: ≥ 50 µM
42 | Cc1c2c(nn1C)C(=O)N(c1ccc3[nH]cnc3c1)C2c1ccc(N2CCC(O)CC2)cc1F (stereo not drawn) [FRPPO-085] | 5 to 50 | –
43 | Cc1c2c(nn1C)C(=O)N(c1ccc3[nH]cnc3c1)C2c1ccc(N2CCOCC2)cc1F (stereo not drawn) [FRPPO-078] | < 1 | –
44 | Cc1c2c(nn1C)C(=O)N(c1ccn3ccnc3c1)C2c1ccc(N2CCOC(C)C2)cc1F (stereo not drawn) [FRPPO-197] | < 1 | –
45 | CCCOc1ccc(C2c3c(nn(C)c3C)C(=O)N2c2ccc3nnn(C)c3c2)cc1 (racemic) [REF-001, reference compound] | – | IC50 [2]: > 6.25 µM
46 | CCCOc1ccc(C2c3c(nn(C)c3C)C(=O)N2c2cc(NC)c3nnc(C)n3n2)cc1 (racemic) [REF-008, reference compound] | – | IC50 [2]: ≥ 50 µM
47 | Cc1c2c(nn1C)C(=O)N(c1ccc3[nH]cnc3c1)C2c1ccc(N2CCOC[C@@H]2C)cc1F (stereo partly drawn) [FRPPO-113A] | < 1 | –
48 | Cc1c2c(nn1C)C(=O)N(c1ccc3[nH]cnc3c1)C2c1ccc(N2CC(C)NC(C)C2)cc1F (stereo not drawn) [FRPPO-100] | 5 to 50 | –
49 | CCCOc1ccc(C2c3c(nn(C)c3C)C(=O)N2c2ccc3[nH]cnc3c2)cc1 (racemic) [FRPPO-001] | < 1 | IC50 [2]: < 1 µM
50 | Cc1c2c(nn1C)C(=O)N(c1ccc3[nH]cnc3c1)C2c1ccc(-c2csc(C(F)(F)F)n2)cc1F (stereo not drawn) [FRPPO-146] | < 1 | –
51 | Cc1c2c(nn1C)C(=O)N(c1ccc3[nH]cnc3c1)C2c1ccc(N2CCC(F)(F)C2)c(F)c1F (stereo not drawn) [FRPPO-154] | < 1 | –
52 | Cc1c2c(nn1C)C(=O)N(c1ccc3[nH]cnc3c1)C2c1ccc(N2CCC2)cc1F (stereo not drawn) [FRPPO-070] | 1 to 5 | –
53 | O=C1c2scnc2C(c2ccc(Cl)cc2F)N1c1ccc2[nH]cnc2c1 (stereo not drawn) [FRPPO-057] | 5 to 50 | –

From patent publication US20230077723A1, “N-SUBSTITUTED-3,4-(FUSED 5-RING)-5-PHENYL-PYRROLIDINE-2-ONE COMPOUNDS AS INHIBITORS OF ISOQC AND/OR QC ENZYME” (Scenic Immunology B.V., priority 2019, published 2023)
